Assay results as given in patent publication US12624019B2, “Indazole derivative, and preparation method therefor and use thereof” (Leadingtac Pharmaceutical (Shaoxing) Co., Ltd., priority 2020, dated 2026).

Experiments:
[1] = target: T1, IRAK4 kinase protein in THP-1 cells (Homo sapiens, UniProt Q9NWZ3); assay: Degradation of IRAK4 in THP-1 cells by Western Blot; assay type: cell-based; conditions: 24 hours; for Dmax / DC50: IRAK4 degradation in THP-1 cells; for Dmax: read-out: WB Dmax; for WB D(%) (300 nM) / WB D(%) (1000 nM): degradation percentage of IRAK4 in THP-1 cells; for WB D(%) (300 nM): compound 300 nM; for WB D(%) (1000 nM): compound 1000 nM; for DC50: read-out: WB DC50
T1 construct: endogenous in cells; host or cells: THP-1 cells
T1 sequence (Q9NWZ3 1-460): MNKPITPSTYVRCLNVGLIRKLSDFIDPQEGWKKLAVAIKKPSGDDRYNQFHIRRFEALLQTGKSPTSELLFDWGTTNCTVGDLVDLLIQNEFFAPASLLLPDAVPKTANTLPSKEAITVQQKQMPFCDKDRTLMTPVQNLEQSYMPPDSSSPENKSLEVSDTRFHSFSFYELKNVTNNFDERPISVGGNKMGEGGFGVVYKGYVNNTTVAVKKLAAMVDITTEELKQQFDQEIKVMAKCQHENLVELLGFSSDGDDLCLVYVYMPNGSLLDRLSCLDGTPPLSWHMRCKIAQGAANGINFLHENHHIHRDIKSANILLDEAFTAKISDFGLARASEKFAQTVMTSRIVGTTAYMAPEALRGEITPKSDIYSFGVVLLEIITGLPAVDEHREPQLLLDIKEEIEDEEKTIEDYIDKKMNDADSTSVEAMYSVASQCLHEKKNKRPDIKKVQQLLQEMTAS
Procedure: Each well of the 24-well cell culture plate was inoculated with 0.95 mL THP-1 cells (stem cell bank of Chinese academy of sciences) with a cell density of 5×10^5 cells/well. The cell plate was placed in a 5% carbon dioxide incubator and cultured overnight at 37° C., then 50 μL compound in dimethyl sulfoxide was added. The final concentration of the compound was in the range of 1-3000 nM. After continuous cultivation for 24 hours, the cells were collected into a 1.5 mL centrifuge tube, centrifuged at 1000 rpm and 4° C. for 5 minutes. Cell precipitation was washed twice with 1×DPBS, resuspended cells were lysed with 200 μL lysate (cell lysate was Western and IP cell lysate (Beyotime), supplemented with 1 mM mixture of phenylmethylsulfonyl fluoride and protease inhibitor (Beyotime)), left on ice for 30 minutes, then centrifuged at 14000 g at 4° C. for 10 minutes, and the supernatant was taken to detect IRAK4 protein level by Western blot.
The total protein concentration in the supernatant of cell lysis was determined by BCA protein quantitative kit (Tiangen). According to the concentration of total protein detected by BCA, the supernatant was adjusted to […] with PBS and 5×SDS-PAGE protein loading buffer (Beyotime), bathed in water at 100° C. for 10 minutes, then placed in ice bath for 5 minutes, centrifuged at 14000 g and 4° C. for 5 minutes, and then collected as WB loading sample. Prefabricated glue (KeyGEN) was used for protein electrophoresis with a loading amount of 10 μL (total protein 2 μg). After Tris-MOPS-SDS electrophoresis solution (Adamas), 120V constant pressure electrophoresis was performed. After electrophoresis, the protein on the adhesive strip was transferred to PVDF membrane with a constant current of […] for 50 minutes. After the membrane was transferred, the membrane was added in 1×QuickBlock blocking buffer (Beyotime) and incubated for 30 minutes at room temperature. After blocking, PVDF membranes were incubated with IRAK4 primary antibody (Abcam) overnight at 4°, the membranes were washed with TBST buffer (2.4 g Tris, 8.8 g NaCl, 1.5 mL Tween 20, pH adjusted to 7.4, constant volume to 1 L) for 30 minutes, incubated with secondary antibody (Abcam) for 2 hours at room temperature, finally incubated with Clarity Western ECL Substrate (BIO-RAD) for 5 minutes for luminescence development, chemiluminescence imaging system (Clinx, chemiScope 6200 Touch) was used for development and protein mapping photography. The protein map was analyzed by Clinx chemiluminescence analysis software for grayscale values. Using the formula: grayscale correction value=(target protein grayscale value/corresponding internal reference grayscale value)×[…], the grayscale correction value of each sample was calculated. The degradation rate was calculated by comparing with the grayscale correction value of the control group. Furthermore, DC50 and Dmax values of the compound were obtained by the nonlinear curve fitting with the logarithmic concentration-inhibition rate by GraphPad Prism 7.

IRAK4 kinase = target: T2, IRAK4 kinase (Homo sapiens, UniProt Q9NWZ3); assay: IRAK4 kinase activity test (KinEASE-STK HTRF kit); assay type: biochemical; conditions: IRAK4 kinase inhibition, 7 μM ATP, 37° C. 120 min
T2 sequence (Q9NWZ3 1-460): T1 sequence (Q9NWZ3 1-460)
Procedure: KinEASE-STK Si serine/threonine kinase kit (Cisbio) was used to detect the inhibitory effect of the compound on IRAK4 kinase activity. The specific method was: the compound was dissolved in dimethyl sulfoxide, and then it was diluted with the buffer solution of the kit by equal gradient to make the final concentration range of the tested compound in the reaction system 10000 nM-0.038 nM, then 2.5 nM kinase, 1 μM biotinylated polypeptide substrate and 7 μM adenosine triphosphate (ATP) were added in sequence and incubated at 37° C. for 120 min. Subsequently, anti-phosphorylated serine/threonine antibody coupled with europium element compound and modified XL665 streptavidin were added to the reaction system to terminate the reaction. After incubating at room temperature for 1 h, the fluorescence intensity of each well at the emission wavelength of 620 nm and 665 nm and the excitation wavelength of 337 nm was determined in HTRF mode on the microplate reader EnVision (PerkinElmer), the ratio value was calculated using the formula Ratio=(665 nm/620 nm)×10^4. By comparing with the fluorescence intensity ratio of the control group, the inhibition rate of the compound at each concentration was calculated, and then the IC50 value of the compound was obtained by fitting the nonlinear curve with the logarithmic concentration-inhibition rate by GraphPad Prism 7.

Dmax [1]	WB D(%) (300 nM) [1]	WB D(%) (1000 nM) [1]	IC50 (IRAK4 kinase)	DC50 [1]	SMILES
73.9%	73.9%	65.1%			COc1cc2nn(C3CCN(CCOCCOc4ccc5c(c4)C(=O)N(C4CCC(=O)NC4=O)C5=O)CC3)cc2cc1NC(=O)c1cccc(C(F)(F)F)n1 (centres unmarked) [Control group 1, N-(2-(1-(2-(2-((2-(2,6-dioxopiperidin-3-yl)-1,3-dioxoisoindolin-5-yl)oxy)ethoxy)ethyl)piperidin-4-yl)-6-methoxy-2H-indazol-5-yl)-6-(trifluoromethyl) pyridinecarboxamide, reference compound]
98.8%	99.4%	99.8%	48.6 nM	25.1 nM	COc1cc2nn(C3CCN(CCC4CCN(c5ccc6c(c5)C(=O)N(C5CCC(=O)NC5=O)C6=O)CC4)CC3)cc2cc1NC(=O)c1cccc(C(F)(F)F)n1 (centres unmarked) [Example 1, N-(2-(1-(2-(1-(2-(2,6-dioxopiperidin-3-yl)-1,3-dioxoisoindolin-5-yl)piperidin-4-yl)ethyl)piperidin-4-yl)-6-methoxy-2H-indazol-5-yl)-6-(trifluoromethyl) pyridinecarboxamide]
97.7%	96.7%	96.4%	56.7 nM	9.3 nM	COc1cc2nn(C3CCN(CCN4CCN(c5ccc6c(c5)C(=O)N(C5CCC(=O)NC5=O)C6=O)CC4)CC3)cc2cc1NC(=O)c1cccc(C(F)(F)F)n1 (centres unmarked) [Example 3, N-(2-(1-(2-(4-(2-(2,6-dioxopiperidin-3-yl)-1,3-dioxoisoindolin-5-yl)piperazin-1-yl)ethyl)piperidin-4-yl)-6-methoxy-2H-indazol-5-yl)-6-(trifluoromethyl) pyridinecarboxamide]
79.1%	81.1%	74.4%	32.7 nM	12.5 nM	CC(C)(O)c1cc2nn(C3CCN(CC(C)(C)N4CCN(c5ccc6c(c5)C(=O)N(C5CCC(=O)NC5=O)C6=O)CC4)CC3)cc2cc1NC(=O)c1cccc(C(F)(F)F)n1 (centres unmarked) [Example 9]
99.8%	97.4%	97.9%	60.9 nM	18.3 nM	CC(C)(O)c1cc2nn(C3CCN(CCC4CCC5(CC4)CCN(c4ccc6c(c4)C(=O)N(C4CCC(=O)NC4=O)C6=O)CC5)CC3)cc2cc1NC(=O)c1cccc(C(F)(F)F)n1 (centres unmarked) [Example 12, N-(2-(1-(2-(3-(2-(2,6-dioxopiperidin-3-yl)-1,3-dioxoisoindolin-5-yl)-3-azaspiro[5.5]undec-9-yl)ethyl)piperidin-4-yl)-6-(2-hydroxyprop-2-yl)-2H-indazol-5-yl)-6-(trifluoromethyl) pyridinecarboxamide]
